According to patent publication US20060069132A1, “Azolecarboxamide herbicides” (priority 2004, published 2006):

Tests used:
redroot pigweed = experiment: Test A pre-/postemergence herbicide test; type: in vivo, Amaranthus retroflexus
Method in brief: (§1)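 Seeds sown in sandy loam received a preemergence directed soil spray of compound in non-phytotoxic solvent with surfactant; postemergence plants (2–10 cm, one- to two-leaf stage) were sprayed to runoff at the same time. After ~10 days in greenhouse, injury was rated visually versus untreated controls (0 = no effect, 100 = complete control).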

ducksalad = experiment: Test B flooded paddy test; type: in vivo, Heteranthera limosa; settings: 1000 g ai/ha, visual rating, scale 0 to 100 (0 no effect, 100 complete control), 13 to 15 days
Method in brief: (§2)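 Postemergence plants were sprayed with formulated test chemicals at 2 to 18 cm height (1- to 4-leaf stage); paddy species were grown to the 2-leaf stage. After 13 to 15 days in a greenhouse, injury was rated visually against untreated controls on a 0–100 scale (0 = no effect, 100 = complete control).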

corn = experiment: Test B pre-/postemergence herbicide test; type: in vivo, Zea mays; settings: for Plant response rating, Corn: preemergence; for Corn plant response rating: postemergence, visual rating, scale 0 (no effect) to 100 (complete control)
Method in brief: (§3)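 Test chemicals in a non-phytotoxic solvent mixture with surfactant were applied preemergence to seeded species and postemergence to plants 2-18 cm tall (1- to 4-leaf stage); rice and barnyardgrass were also tested in a flooded paddy at the 2-leaf stage. Visual rating versus controls after 13-15 days in greenhouse, scale 0 (no effect) to 100 (complete control).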

velvetleaf [1] = experiment: Test A pre-/postemergence herbicide test; type: in vivo, Abutilon theophrasti
Method in brief: as §1

morningglory [2] = experiment: Test A pre-/postemergence herbicide test; type: in vivo, Ipomoea spp.
Method in brief: as §1

lambsquarters = experiment: Test B pre-/postemergence herbicide test; type: in vivo, Chenopodium album; settings: for Plant response rating, Lambsquarters: preemergence; for Lambsquarters plant response rating: postemergence, visual rating, scale 0 (no effect) to 100 (complete control)
Method in brief: as §3

blackgrass = experiment: Test B postemergence herbicide test; type: in vivo, Alopecurus myosuroides; settings: postemergence, visual rating, scale 0 (no effect) to 100 (complete control)
Method in brief: as §2

wheat = experiment: Test B postemergence herbicide test; type: in vivo, Triticum aestivum; set-up: key to Wheat plant response rating: 0 = no effect, 100 = complete control; settings: postemergence, visual rating, scale 0 (no effect) to 100 (complete control)
Method in brief: (§4)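 Scale 0–100: zero equals no visible effect, 100 complete control, judged by eye relative to controls. Timing: 13 to 15 days in greenhouse post-treatment. Growth stage at spraying: two leaves (paddy) or one to four leaves, 2–18 cm (postemergence).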

giant foxtail [3] = experiment: Test B pre-/postemergence herbicide test; type: in vivo, Setaria faberi; settings: for Plant response rating, Foxtail, Giant: preemergence; for Foxtail, Giant plant response rating: postemergence, visual rating, scale 0 (no effect) to 100 (complete control)
Method in brief: as §3

wild oat = experiment: Test B postemergence herbicide test; type: in vivo, Avena fatua; settings: postemergence, visual rating, scale 0 (no effect) to 100 (complete control)
Method in brief: as §4

[4] = system: small flower umbrella sedge; experiment: Test B flooded paddy test; type: in vivo, Cyperus difformis; settings: 1000 g ai/ha, visual rating, scale 0 to 100 (0 no effect, 100 complete control), 13 to 15 days
Method in brief: as §2

rice [5] = experiment: Test B flooded paddy test; type: in vivo, Oryza sativa; settings: 1000 g ai/ha, visual rating, scale 0 to 100 (0 no effect, 100 complete control), 13 to 15 days
Method in brief: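 Paddy species grown to the 2-leaf stage under flooding; blackgrass sprayed postemergence at 2–18 cm (1- to 4-leaf stage). Plants kept in a greenhouse for 13 to 15 days, then visually rated against controls on 0 (no effect) to 100 (complete control).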

cocklebur = experiment: Test B pre-/postemergence herbicide test; type: in vivo, Xanthium strumarium; settings: for Plant response rating, Cocklebur: preemergence; for Cocklebur plant response rating: postemergence, visual rating, scale 0 (no effect) to 100 (complete control)
Method in brief: (§5)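 Seeds were planted and treated preemergence with compounds formulated in a non-phytotoxic solvent mixture containing surfactant, while plants at the 1- to 4-leaf stage (2 to 18 cm) received postemergence sprays. Flooded paddy plants were grown to the 2-leaf stage. After 13 to 15 days in a greenhouse, injury was visually rated 0–100 against untreated controls.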

barnyardgrass [6] = experiment: Test A pre-/postemergence herbicide test; type: in vivo, Echinochloa crus-galli
Method in brief: as §1

large crabgrass [7] = experiment: Test A pre-/postemergence herbicide test; type: in vivo, Digitaria sanguinalis
Method in brief: as §1

Surinam grass = experiment: Test B pre-/postemergence herbicide test; type: in vivo, Urochloa decumbens; settings: for Plant response rating, Surinam Grass: preemergence; for Surinam Grass plant response rating: postemergence, visual rating, scale 0 (no effect) to 100 (complete control)
Method in brief: as §3

velvetleaf [8] = experiment: Test B pre-/postemergence herbicide test; type: in vivo, Abutilon theophrasti; settings: for Plant response rating, Velvetleaf: preemergence; for Velvetleaf plant response rating: postemergence, visual rating, scale 0 (no effect) to 100 (complete control)
Method in brief: as §3

giant foxtail [9] = experiment: Test A pre-/postemergence herbicide test; type: in vivo, Setaria faberi
Method in brief: as §1

barnyardgrass [10] = experiment: Test B flooded paddy test; type: in vivo, Echinochloa crus-galli; settings: 1000 g ai/ha, visual rating, scale 0 to 100 (0 no effect, 100 complete control), 13 to 15 days
Method in brief: as §2

rice [11] = experiment: Test B pre-/postemergence herbicide test; type: in vivo, Oryza sativa; settings: preemergence, 125 g ai/ha; 0 to 100 scale, 0 is no effect, 100 is complete control
Method in brief: as §3

pigweed = experiment: Test B pre-/postemergence herbicide test; type: in vivo, Amaranthus retroflexus; settings: for Plant response rating, Pigweed: preemergence; for Pigweed plant response rating: postemergence, visual rating, scale 0 (no effect) to 100 (complete control)
Method in brief: as §3

morningglory [12] = experiment: Test B pre-/postemergence herbicide test; type: in vivo, Ipomoea coccinea; settings: for Plant response rating, Morningglory: preemergence; for Morningglory plant response rating: postemergence, visual rating, scale 0 (no effect) to 100 (complete control)
Method in brief: as §5

barnyardgrass [13] = experiment: Test B pre-/postemergence herbicide test; type: in vivo, Echinochloa crus-galli; settings: for Plant response rating, Barnyardgrass: preemergence; for Barnyardgrass plant response rating: postemergence, visual rating, scale 0 (no effect) to 100 (complete control)
Method in brief: as §5

large crabgrass [14] = experiment: Test B pre-/postemergence herbicide test; type: in vivo, Digitaria sanguinalis; settings: for Plant response rating, Crabgrass, Large: preemergence; for Crabgrass, Large plant response rating: postemergence, visual rating, scale 0 (no effect) to 100 (complete control)
Method in brief: as §3

[15] = Postemergence, 500 g ai/ha, 0 to 100 scale, 0 no effect, 100 complete control
[16] = Postemergence, 2000 g ai/ha, 0 to 100 scale, 0 no effect, 100 complete control
[17] = Preemergence, 2000 g ai/ha, visual rating, 0 to 100 scale (0 no effect, 100 complete control)
[18] = preemergence, 500 g ai/ha, visual injury, 0 to 100 scale (0 no effect, 100 complete control)
[19] = 500 g ai/ha, visual rating 0-100, 0 no effect, 100 complete control
[20] = 125 g ai/ha, 0 to 100 scale, 0 is no effect, 100 is complete control
[21] = Preemergence, 500 g ai/ha, visual rating, 0 to 100 scale (0 no effect, 100 complete control)

## CC(=O)c1cc(NC(=O)c2cc(C(C)(C)C)nn2C)ccc1F [Compound 123]
Redroot pigweed; [15]
  Pigweed plant response rating: 0
Redroot pigweed; [16]
  Plant response rating, Pigweed: 15
Redroot pigweed; [17]
  Pigweed plant response rating: 0
Redroot pigweed; [18]
  Pigweed plant response rating: 0
ducksalad
  Ducksalad plant response rating: 50
corn; [19]
  Plant response rating, Corn: 0
corn; 125 g ai/ha
  Corn plant response rating: 0
corn; 500 g ai/ha
  Corn plant response rating: 0
corn; [20]
  Plant response rating, Corn: 0
Velvetleaf [1]; [15]
  Velvetleaf plant response rating: 0
Velvetleaf [1]; [16]
  Plant response rating, Velvetleaf: 10
Velvetleaf [1]; [17]
  Velvetleaf plant response rating: 0
Velvetleaf [1]; [18]
  Velvetleaf plant response rating: 0
Morningglory [2]; [15]
  Morningglory plant response rating: 0
Morningglory [2]; [16]
  Plant response rating, Morningglory: 10
Morningglory [2]; [21]
  Morningglory plant response rating: 0
Morningglory [2]; [17]
  Morningglory plant response rating: 0
lambsquarters; [19]
  Plant response rating, Lambsquarters: 0
lambsquarters; 125 g ai/ha
  Lambsquarters plant response rating: 0
lambsquarters; 500 g ai/ha
  Lambsquarters plant response rating: 0
lambsquarters; [20]
  Plant response rating, Lambsquarters: 0
blackgrass; 125 g ai/ha
  Blackgrass plant response rating: 0
blackgrass; 500 g ai/ha
  Blackgrass plant response rating: 0
wheat; 125 g ai/ha
  Wheat plant response rating: 0
wheat; 500 g ai/ha
  Wheat plant response rating: 0
Giant foxtail [3]; [19]
  Plant response rating, Foxtail, Giant: 0
Giant foxtail [3]; 125 g ai/ha
  Foxtail, Giant plant response rating: 0
Giant foxtail [3]; 500 g ai/ha
  Foxtail, Giant plant response rating: 0
Giant foxtail [3]; [20]
  Plant response rating, Foxtail, Giant: 0
Wild oat; 125 g ai/ha
  Oat, Wild plant response rating: 0
Wild oat; 500 g ai/ha
  Oat, Wild plant response rating: 0
[4]
  Sedge, Umbrella plant response rating: 30
Rice [5]
  Rice plant response rating: 0
cocklebur; [19]
  Plant response rating, Cocklebur: 0
cocklebur; 125 g ai/ha
  Cocklebur plant response rating: 0
cocklebur; 500 g ai/ha
  Cocklebur plant response rating: 0
cocklebur; [20]
  Plant response rating, Cocklebur: 0
Barnyardgrass [6]; [15]
  Barnyardgrass plant response rating: 5
Barnyardgrass [6]; [16]
  Plant response rating, Barnyardgrass: 20
Barnyardgrass [6]; [21]
  Barnyardgrass plant response rating: 5
Barnyardgrass [6]; [17]
  Barnyardgrass plant response rating: 50
Large crabgrass [7]; [15]
  Crabgrass, Large plant response rating: 10
Large crabgrass [7]; [16]
  Plant response rating, Crabgrass, Large: 10
Large crabgrass [7]; [21]
  Crabgrass, Large plant response rating: 15
Large crabgrass [7]; [17]
  Crabgrass, Large plant response rating: 0
Surinam grass; [19]
  Plant response rating, Surinam Grass: 0
Surinam grass; 125 g ai/ha
  Surinam Grass plant response rating: 0
Surinam grass; 500 g ai/ha
  Surinam Grass plant response rating: 0
Surinam grass; [20]
  Plant response rating, Surinam Grass: 0
Velvetleaf [8]; [19]
  Plant response rating, Velvetleaf: 0
Velvetleaf [8]; 125 g ai/ha
  Velvetleaf plant response rating: 0
Velvetleaf [8]; 500 g ai/ha
  Velvetleaf plant response rating: 0
Velvetleaf [8]; [20]
  Plant response rating, Velvetleaf: 0
Giant foxtail [9]; [15]
  Foxtail, Giant plant response rating: 0
Giant foxtail [9]; [16]
  Plant response rating, Foxtail, Giant: 10
Giant foxtail [9]; [21]
  Foxtail, Giant plant response rating: 0
Giant foxtail [9]; [17]
  Foxtail, Giant plant response rating: 0
Barnyardgrass [10]
  Barnyardgrass plant response rating: 0
Rice [11]
  Plant response rating, Rice: 0
pigweed; [19]
  Plant response rating, Pigweed: 0
pigweed; 125 g ai/ha
  Pigweed plant response rating: 0
pigweed; 500 g ai/ha
  Pigweed plant response rating: 0
pigweed; [20]
  Plant response rating, Pigweed: 0
Morningglory [12]; [19]
  Plant response rating, Morningglory: 0
Morningglory [12]; 125 g ai/ha
  Morningglory plant response rating: 0
Morningglory [12]; 500 g ai/ha
  Morningglory plant response rating: 0
Morningglory [12]; [20]
  Plant response rating, Morningglory: 0
Barnyardgrass [13]; [19]
  Plant response rating, Barnyardgrass: 0
Barnyardgrass [13]; 125 g ai/ha
  Barnyardgrass plant response rating: 0
Barnyardgrass [13]; 500 g ai/ha
  Barnyardgrass plant response rating: 0
Barnyardgrass [13]; [20]
  Plant response rating, Barnyardgrass: 0
Large crabgrass [14]; [19]
  Plant response rating, Crabgrass, Large: 0
Large crabgrass [14]; 125 g ai/ha
  Crabgrass, Large plant response rating: 0
Large crabgrass [14]; 500 g ai/ha
  Crabgrass, Large plant response rating: 0
Large crabgrass [14]; [20]
  Plant response rating, Crabgrass, Large: 0
